Measurements: PMC3174134, “Lucanthone and Its Derivative Hycanthone Inhibit Apurinic Endonuclease-1 (APE1) by Direct Protein Binding” (PLoS ONE, 2011)

Tests used:
[1] = system: tubulin; experiment: Tubulin stability in U251 1-5 whole cell extracts, Western blot; details: lucanthone 2.5-100 µM; CRT at 200 µM
Protocol: (§1) Total purified protein concentration was determined by the ratio of A280/A260. 250 ng of APE1 treated with lucanthone or hycanthone (0.05–100 µM) for 2 h at 37°C in final volume of 30 µl were mixed with an equal volume of gel loading buffer (0.001% bromophenol blue, 4% SDS, 10% 2-ME, 20% glycerol, and 125 mM Tris pH 6.8) and denatured at 95°C for 5 min. Total protein concentration in cell extracts was determined using the Bradford assay (BioRad, Hercules, CA) and 25 µg of total protein from soluble or insoluble cell fractions were mixed with an equal volume of gel loading buffer (0.001% bromophenol blue, 4% SDS, 10% 2-ME, 20% glycerol, and 125 mM Tris pH 6.8) and denatured at 95°C for 5 min. This mixture was separated by SDS-PAGE (4% stacking, 7.5% resolving gel) for 2–3 h at 40 mA on a BioRad MiniPROTEAN II Electrophoresis Cell. To detect proteins, proteins were transferred onto a trans-Blot nitrocellulose membrane (0.45 µm; BioRad) overnight at 4°C at 15 mA in standard Tris-Glycine buffer containing 20% ethanol. […] Chemi-luminescence was developed using an ECL kit according to the manufacturer's instructions and detected by exposing the blot to HyperfilmECL for 30 s–3 min. […]

[2] = biological target: T1, APE1 (Homo sapiens, UniProt P27695); experiment: APE1 cleavage in whole cell extracts of U251 1-5 APE1 overexpressor clone, Western blot with protease inhibitor cocktail; design: the full length APE1 protein was successfully expressed and purified; made in house; host or cells: E. coli BL21/DE3; details: U251 1-5 whole cell extracts, 2 h, 37°C
T1 sequence (P27695 whole entry): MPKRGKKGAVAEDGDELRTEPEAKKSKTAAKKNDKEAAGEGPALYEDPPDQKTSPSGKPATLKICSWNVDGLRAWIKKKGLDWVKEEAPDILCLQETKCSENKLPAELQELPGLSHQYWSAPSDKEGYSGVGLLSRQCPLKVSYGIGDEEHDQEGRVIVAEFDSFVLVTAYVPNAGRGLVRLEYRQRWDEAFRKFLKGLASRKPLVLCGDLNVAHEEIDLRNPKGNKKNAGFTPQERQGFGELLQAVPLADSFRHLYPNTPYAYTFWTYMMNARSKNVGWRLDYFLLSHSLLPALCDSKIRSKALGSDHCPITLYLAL
Protocol: as §1

[3] = biological target: T1, APE1; experiment: MALDI-TOF analysis of APE1 degradation; design: the full length APE1 protein was successfully expressed and purified; made in house; host or cells: E. coli BL21/DE3; details: 100 µM drug
Protocol: 100 nM of APE1 protein was treated with 100 µM of lucanthone, hycanthone or CRT at 37°C for 2 h and 24 h and analyzed on sinipinic acid matrix on a Voyager-DE STR (Applied Biosystems) MALDI-TOF instrument at the Proteomics facility at SUNYSB in a linear mode.

O=C(O)c1cc2cccc([N+](=O)[O-])c2[nH]1 [CRT0044876, 7-Nitroindole-2-carboxylic acid]
Effect on tubulin protein [1]: some shift in its migration | Concentration causing cleavage of APE1 [2]: 200 µM | Time at which APE1 degradation is seen by MALDI [3]: 24 h | APE1 protein fragments by MALDI-TOF ([3]; 37°C, 2 or 24 h): much less cleavage of APE1 | Full length 35.5 kDa APE1 peak by MALDI-TOF ([3]; 37°C, 24 h): still an intact 35.5 kDa peak
